SMILES strings stand for the structures.

Sequence of human integrin αvβ6 (P06756 31-992): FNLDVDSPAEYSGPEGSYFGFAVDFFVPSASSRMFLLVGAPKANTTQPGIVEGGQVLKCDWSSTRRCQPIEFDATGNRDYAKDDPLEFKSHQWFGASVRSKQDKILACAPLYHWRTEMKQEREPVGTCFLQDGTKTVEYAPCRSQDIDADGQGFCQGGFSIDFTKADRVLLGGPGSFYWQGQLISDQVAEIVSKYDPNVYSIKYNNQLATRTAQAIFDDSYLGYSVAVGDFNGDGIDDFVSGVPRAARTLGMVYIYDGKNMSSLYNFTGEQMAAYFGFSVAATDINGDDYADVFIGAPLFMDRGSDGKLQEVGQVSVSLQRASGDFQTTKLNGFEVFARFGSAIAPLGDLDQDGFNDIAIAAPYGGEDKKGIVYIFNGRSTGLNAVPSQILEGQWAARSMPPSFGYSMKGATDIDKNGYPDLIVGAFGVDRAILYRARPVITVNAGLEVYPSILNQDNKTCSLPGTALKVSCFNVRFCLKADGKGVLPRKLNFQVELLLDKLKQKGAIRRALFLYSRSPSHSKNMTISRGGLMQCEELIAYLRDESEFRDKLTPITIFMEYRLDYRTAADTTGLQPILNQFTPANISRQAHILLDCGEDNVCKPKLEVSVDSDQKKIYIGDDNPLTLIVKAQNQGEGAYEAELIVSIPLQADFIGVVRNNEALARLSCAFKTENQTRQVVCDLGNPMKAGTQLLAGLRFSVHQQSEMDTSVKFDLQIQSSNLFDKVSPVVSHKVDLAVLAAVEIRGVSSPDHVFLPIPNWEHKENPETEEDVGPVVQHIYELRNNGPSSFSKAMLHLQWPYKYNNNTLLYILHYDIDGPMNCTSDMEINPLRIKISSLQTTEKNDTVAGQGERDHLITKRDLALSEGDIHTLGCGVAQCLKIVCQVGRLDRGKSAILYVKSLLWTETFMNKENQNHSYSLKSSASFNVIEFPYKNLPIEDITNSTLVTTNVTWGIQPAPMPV
Sequence of human integrin αvβ6 (P18564 22-707): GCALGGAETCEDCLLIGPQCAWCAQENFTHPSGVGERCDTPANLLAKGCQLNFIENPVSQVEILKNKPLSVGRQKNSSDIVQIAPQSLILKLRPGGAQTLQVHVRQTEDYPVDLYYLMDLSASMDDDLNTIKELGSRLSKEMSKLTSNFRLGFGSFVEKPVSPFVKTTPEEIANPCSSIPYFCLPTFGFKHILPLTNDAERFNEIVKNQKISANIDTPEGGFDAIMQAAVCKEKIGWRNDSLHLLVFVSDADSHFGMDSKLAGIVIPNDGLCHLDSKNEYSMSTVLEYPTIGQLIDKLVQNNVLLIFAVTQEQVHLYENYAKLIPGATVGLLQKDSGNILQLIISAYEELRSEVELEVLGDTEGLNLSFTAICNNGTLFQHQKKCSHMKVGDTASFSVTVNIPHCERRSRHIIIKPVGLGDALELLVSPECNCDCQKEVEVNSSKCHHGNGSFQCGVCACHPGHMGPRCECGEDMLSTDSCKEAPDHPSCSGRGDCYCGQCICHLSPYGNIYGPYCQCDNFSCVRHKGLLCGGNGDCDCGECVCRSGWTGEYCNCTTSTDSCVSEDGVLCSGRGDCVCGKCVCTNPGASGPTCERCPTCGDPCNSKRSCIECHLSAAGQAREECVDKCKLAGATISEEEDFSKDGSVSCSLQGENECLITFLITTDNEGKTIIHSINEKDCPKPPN

The target of this assay is human integrin αvβ6 (Homo sapiens (Human), UniProt P06756+P18564). The assay can be described thus: Proximity-based integrin receptor binding assay (ALPHASCREEN) for inhibitor potency. The following applies: inhibition of binding of TGF-b1 LAP to human integrin αvβ6; values given in ranges. How it is done:
To gauge the potency of inhibitors of binding to human integrin αvβ6, inhibitor compounds and integrin were incubated together with TGF-b1 LAP and biotinylated anti-LAP antibody plus acceptor and donor beads, following the manufacture's recommendations. The donor beads were coated with streptavidin. […] All incubations occurred at room temperatures in 50 mM Tris-HCl, pH 7.5, 0.1% BSA supplemented with 1 mM each CaCl2 and MgCl2.
The order of reagent addition was as follows:
1. Alpha-v-beta-6 integrin, test inhibitor compound, LAP, biotinylated anti-LAP antibody and acceptor beads were all added together.
2. After 2 hours, donor beads were added. After another 30 minute incubation, samples were then read.
Integrin binding was evaluated by exciting donor beads at 680 nm, and measuring the fluorescent signal produced, between 520-620 nm, using a Biotek Instruments (Winooski, Vt., USA) SynergyNeo2 multimode plate reader. […] Data analysis for IC50 determinations was carried out by nonlinear four parameter logistic regression analysis using Dotmatics ELN Software (Core Informatics Inc., Branford, Conn.).
As for `O=C(N[C@@H](CCO[C@H]1C[C@H](CCc2ccc3c(n2)NCCC3)C1)C(=O)O)c1cc(F)cc(Cl)c1` [Compound 26, N-(3-chloro-5-fluorobenzoyl)-O-(trans-3-(2-(5,6,7,8-tetrahydro-1,8-naphthyridin-2-yl)ethyl)cyclobutyl)homoserine], the IC50 (in general, the concentration needed to halve the response being measured) is under 50 nM.
`O=C(N[C@@H](CCO[C@H]1C[C@H](CCc2ccc3c(n2)NCCC3)C1)C(=O)O)c1cccc(Cl)c1F` [Compound 27, N-(3-chloro-2-fluorobenzoyl)-O-(trans-3-(2-(5,6,7,8-tetrahydro-1,8-naphthyridin-2-yl)ethyl)cyclobutyl)homoserine]: the IC50 is under 50 nM.
Then `O=C(N[C@@H](CCO[C@H]1C[C@H](CCc2ccc3c(n2)NCCC3)C1)C(=O)O)c1cc(F)cc(F)c1` [Compound 28, N-(3,5-difluorobenzoyl)-O-(trans-3-(2-(5,6,7,8-tetrahydro-1,8-naphthyridin-2-yl)ethyl)cyclobutyl)homoserine], with under 50 nM; and `O=C(N[C@@H](CCO[C@H]1C[C@H](CCc2ccc3c(n2)NCCC3)C1)C(=O)O)c1ccc(F)c(F)c1` [Compound 29, N-(3,4-difluorobenzoyl)-O-(trans-3-(2-(5,6,7,8-tetrahydro-1,8-naphthyridin-2-yl)ethyl)cyclobutyl)homoserine], with under 50 nM; and `O=C(N[C@@H](CCO[C@H]1C[C@H](CCc2ccc3c(n2)NCCC3)C1)C(=O)O)c1cccc(Cl)c1Cl` [Compound 30, N-(2,3-dichlorobenzoyl)-O-(trans-3-(2-(5,6,7,8-tetrahydro-1,8-naphthyridin-2-yl)ethyl)cyclobutyl)homoserine], with under 50 nM.
Then `O=C(N[C@@H](CCO[C@H]1C[C@H](CCc2ccc3c(n2)NCCC3)C1)C(=O)O)c1c(F)cccc1Cl` [Compound 31, N-(2-chloro-6-fluorobenzoyl)-O-(trans-3-(2-(5,6,7,8-tetrahydro-1,8-naphthyridin-2-yl)ethyl)cyclobutyl)homoserine], with under 50 nM; and `O=C(N[C@@H](CCO[C@H]1C[C@H](CCc2ccc3c(n2)NCCC3)C1)C(=O)O)c1c(F)cccc1F` [Compound 32, N-(2,6-difluorobenzoyl)-O-(trans-3-(2-(5,6,7,8-tetrahydro-1,8-naphthyridin-2-yl)ethyl)cyclobutyl)homoserine], with under 50 nM; and `O=C(N[C@@H](CCO[C@H]1C[C@H](CCc2ccc3c(n2)NCCC3)C1)C(=O)O)c1cc(F)ccc1F` [Compound 33, N-(2,5-difluorobenzoyl)-O-(trans-3-(2-(5,6,7,8-tetrahydro-1,8-naphthyridin-2-yl)ethyl)cyclobutyl)homoserine], with under 50 nM.
Consider `O=C(N[C@@H](CCO[C@H]1C[C@H](CCc2ccc3c(n2)NCCC3)C1)C(=O)O)c1ccc(Cl)c(Cl)c1` [Compound 34, N-(3,4-dichlorobenzoyl)-O-(trans-3-(2-(5,6,7,8-tetrahydro-1,8-naphthyridin-2-yl)ethyl)cyclobutyl)homoserine], for which the IC50 was 50 to 250 nM.
Then `O=C(N[C@@H](CCO[C@H]1C[C@H](CCc2ccc3c(n2)NCCC3)C1)C(=O)O)c1ccccn1` [Compound 35, N-picolinoyl-O-(trans-3-(2-(5,6,7,8-tetrahydro-1,8-naphthyridin-2-yl)ethyl)cyclobutyl)homoserine], with 50 to 250 nM.
With `O=C(N[C@@H](CCO[C@H]1C[C@H](CCc2ccc3c(n2)NCCC3)C1)C(=O)O)c1cccnc1` [Compound 36, N-nicotinoyl-O-(trans-3-(2-(5,6,7,8-tetrahydro-1,8-naphthyridin-2-yl)ethyl)cyclobutyl)homoserine], the half-inhibitory concentration (IC50) is under 50 nM.
`O=C(NC(CCO[C@H]1C[C@H](CCc2ccc3c(n2)NCCC3)C1)C(=O)O)c1ccncc1` (stereo partly drawn) [Compound 37, N-isonicotinoyl-O-(trans-3-(2-(5,6,7,8-tetrahydro-1,8-naphthyridin-2-yl)ethyl)cyclobutyl)homoserine]: the IC50 is under 50 nM.

The values are drawn from patent publication US11180494B2, “Substituted amino acids as integrin inhibitors” (Pliant Therapeutics, Inc., priority 2018, dated 2021).
